# Reference: patent US20260021078A1, “COMPOSITIONS AND METHODS FOR THE TREATMENT OR PREVENTION OF PULMONARY HYPERTENSION” (VIVUS LLC, priority 2015, published 2026)
# Where two headings read alike, the source gives them in different places.
# Key:
# [1] = assay/target not stated; cited from earlier work
# [2] = tested on: rats; conditions: 14-day, cited from earlier work
# [3] = tested on: popliteal lymph node hyperplasia; conditions: popliteal lymph node hyperplasia assay; lower potency than tacrolimus; cited from earlier work
# [4] = tested on: SuHx rat model of pulmonary arterial hypertension; assay: SuHx rat model of PAH with 3 weeks normoxia before treatment, Example 2; type: in vivo
# Experimental: A second study was conducted as described in Example 1, except the rats injected with Sugen 5416 and placed in hypoxia for 3 weeks were returned to normoxia for three weeks, and then treated for three weeks. The rats were then implanted with s.c. osmotic pumps delivering vehicle (negative control), 0.05 mg/kg/day tacrolimus (FK506), or 0.15 mg/kg/day, 1.0 mg/kg/day, 3.0 mg/kg/day ascomycin (FK520). Rats that were not treated with Sugen 5416 and remained under normoxia served as control. There were 5 rats in the control group, and 10 rats in each treated group. At the end of the study, the rats were anaesthetized and hemodynamic data was obtained. […] The left lobes of the lungs were harvested from every rat, fixed with 10% formalin, sliced at 5 μm thickness, mounted and stained with Movat staining. […] Of particular significance in SuHx model is the rare plexiform lesions (label 4 in FIG. 3A) that are neointimal hyperplasia blocking the small vessels resulting in increased pressure. With plexiform lesions and endothelial cells overgrowth, obliteration is formed.
# [5] = tested on: patients with pulmonary hypertension (WHO Group I PAH); assay: Clinical study in patients with pulmonary arterial hypertension, Example 3; type: in vivo, human
# Description: Patients are invited to participate in this study because they have pulmonary hypertension (PH) and are currently treated with one or multiple drugs for PH such as PDE-5 inhibitors (sildenafil, tadalafil), prostacyclins (Flolan, Remodulin, Iloprost) and/or the endothelin antagonist Ambrisentan. This study is open to male or female subjects, 18-70 years of age, with pulmonary hypertension. The Inclusion and Exclusion criteria used are below:
# • 1. Age ≥18 and <70 years • 2. Diagnosis of WHO Group I Pulmonary Arterial Hypertension (PAH) (Idiopathic (I)PAH, Heritable PAH (including Hereditary Hemorrhagic Telangiectasia), Associated (A)PAH (including collagen vascular disorders, drugs+toxins exposure, congenital heart disease, and portopulmonary disease). • 3. Previous Right Heart Catheterization (RHC) that documented: • a. Mean PAP≥25 mmHg. • b. Pulmonary capillary wedge pressure<15 mmHg. • c. Pulmonary Vascular Resistance≥3.0 Wood units or 240 dynes/sec/cm5 • 5. All NYHA/WHO functional classes. • 6. Willingness of female subjects to use birth control, or be post-menopausal, or status post hysterectomy.
# • 1. WHO Group II-V Pulmonary Hypertension. • 2. Current or prior experimental PAH treatments within the last 6 months (including but not limited to tyrosine kinase inhibitors, rho-kinase inhibitors, or cGMP modulators). • 3. […]
# [6] = tested on: SuHx rat model of pulmonary arterial hypertension; assay: Sugen 5416 plus chronic hypoxia (SuHx) rat model of PAH, Example 1; type: in vivo
# Description: The purpose of this study was to establish pulmonary arterial hypertension (PAH) in rats by induction with Sugen 5416, a vascular endothelial growth factor (VEGF) inhibitor, plus chronic hypoxia (SuHx) in order to evaluate and compare the efficacy of tacrolimus and ascomycin for the treatment of PAH in the SuHx rat model. The assay is designed to measure the pulmonary and systemic arterial blood pressures related to PAH in the anaesthetized SuHx rat induced with a single subcutaneous dose of Sugen 5416, combined with an induction period of chronic hypoxia.
# Male Sprague Dawley rats (Charles River Laboratories) weighing between 200 and 250 g at the time of their enrollment in the study were the test subjects for this study. The animals were assigned to groups by the Study Director in order to evenly distribute the ranges of body weights throughout all treatment groups. Animals in the test groups (n=10 in each group) received one subcutaneous injection of 20 mg/kg of SU5416 on Day 0 and were returned to their respective cages. These rats were placed in cages in which the controlled airflow (ventilated cage system) was adjusted to deliver a FiO2 equivalent to 0.10 (10%) using a mixture of nitrogen and ambient air, for a period of 3 weeks. Animals in the control group (n=5) remained in cages exposed to ambient oxygen levels.
# On day 21, animals in the test groups were implanted with osmotic pumps filled with the vehicle alone (negative control), or with the appropriate concentration of tacrolimus (FK506) or ascomycin (FK520) to deliver 0.05 mg/kg/day of tacrolimus, 0.05 mg/kg/day of ascomycin, or 0.15 mg/kg/day of ascomycin for a period of three weeks. At the end of the study, the rats were anaesthetized and hemodynamic data was obtained. […] Cardiac output was lower after administration of Sugen5416 and hyposia, and increased with ascomycin treatment.
# [7] = tested on: BMP response element (BRE) from the Id1 promoter fused to luciferase (BRE-luc) in C2C12 mouse myoblastoma reporter cell line; assay: BRE-luc BMP signaling reporter assay in C2C12 cells; type: cell-based
# Experimental: The activation of the BMP pathway was measured by luminescence. […] Thus, ascomycin activates BMPR2 signaling, and can be used for the prevention or treatment of diseases associated with decreased BMPR2 signaling, such as pulmonary arterial hypertension (PAH).
# [8] = all three doses (0.15 [0.3 in b20], 1.0, 3.0 mg/kg/day) s.c. osmotic pump, three weeks
# [9] = 0.15 mg/kg/day by osmotic pump for three weeks, vs vehicle-treated SuHx rats
# [10] = 0.05 mg/kg/day s.c. osmotic pump, three weeks
SMILES,IC50 [1] [nM],"nephrotoxicity ([2]; continuous i.p. infusion at 10 mg/kg/day, rats on a normal diet)","nephrotoxicity ([2]; continuous i.v. infusion up to 6 mg/kg/day, rats on a low salt diet)","nephrotoxicity ([2]; daily oral administration up to 50 mg/kg/day, rats on a normal diet)",immunosuppressive potency compared with tacrolimus (fold lower) [3] [fold],"lung histopathology (Movat staining micrographs, FIG. 3B) ([4]; 1 mg/kg/day, left lung lobes, negative control showed all four grades of disease progression)","right ventricular systolic pressure [4, 8]","systolic pulmonary arterial pressure [4, 8]",incidences of hypertension or cardiovascular events [5],tolerability ([5]; all tested doses),"RVSP (FIG. 1B) [6, 9]","pulmonary arterial pressure (FIG. 1A) [6, 9]","Cardiac output ([6]; ascomycin treatment after Sugen5416 and hypoxia, dose not specified)",IDI activation (luminescence relative to the EC-20 dose of BMP4) ([7]; with exogenous BMP4) [%],IDI activation (luminescence relative to the EC-20 dose of BMP4) ([7]; without exogenous BMP4) [%],"right ventricular hypertrophy [4, 10]","right ventricular systolic pressure [4, 10]"
"CC[C@@H]1/C=C(\C)C[C@H](C)C[C@H](OC)[C@H]2O[C@@](O)(C(=O)C(=O)N3CCCC[C@H]3C(=O)O[C@H](/C(C)=C/[C@@H]3CC[C@@H](O)[C@H](OC)C3)[C@H](C)[C@@H](O)CC1=O)[C@H](C)C[C@@H]2OC [ascomycin, (3S,4R,5S,8R,9E,12S,14S,15R,16S,18R, 19R,26aS)-8-ethyl-5,19-dihydroxy-3-{(1E)-1-[(1R,3R,4R)-4-hydroxy-3-methoxycyclohexyl]prop-1-en-2-yl}-14,16-dimethoxy-4,10,12,18-tetramethyl-5.6,8,11,12,13,14,15,16,17,18,19,24,25,26,26a-hexadecahydro-3H-15.19-epoxypyrido[2,1-c][1,4]oxazacyclotricosine-1,7,20,21(4H,23H)-tetrone]",0.55,not induced,not induced,not induced,3,mostly medial hypertrophy (label 1) and non-muscular vessels,decreases,decreases,no incidences,well tolerated,reversed the elevation,reversed the elevation,increased,238,104,–,–
"C=CC[C@@H]1/C=C(\C)C[C@H](C)C[C@H](OC)[C@H]2O[C@@](O)(C(=O)C(=O)N3CCCC[C@H]3C(=O)O[C@H](/C(C)=C/[C@@H]3CC[C@@H](O)[C@H](OC)C3)[C@H](C)[C@@H](O)CC1=O)[C@H](C)C[C@@H]2OC [tacrolimus, reference compound]",–,–,–,–,–,–,–,–,–,–,–,–,–,–,–,reduces the elevation,reduces the elevation
